Starred links: 1 amine or outer side, 2 acyl side, 3 side chain; linkers in the order of their positions; H or OH if unused. Residues, ends and D or L forms follow the SMILES beside them. Groups on a side chain read outwards from the residue. *: point of attachment. Glutaryl = O=C(CCCC(=O)[*:2])[*:1]; NHNH2 = NN*
What was measured:
[1] = system: Hela cells; assay: EGFP mRNA delivery, robotic library screening, HeLa; assay type: cell-based
Method: Cells were seeded in a 96 well plate the day before the experiment at a concentration of 50,000 cell/mL (100 μL/w) in DMEM+10% FBS+1% Gln-Abt. For robotic library screening, the delivery of EGFP-mRNA (from TriLink, fully substituted with 5-methoxyuridine, capped and polyadenylated; TriLink, CleanCap® EGFP mRNA (5moU), ref. L-7201) in six different cell lines was performed. Amphiphilic molecule stock solutions were prepared in DMSO as described above and diluted in DMEM to afford a range of concentrations. The solutions of EGFP-mRNA/amphiphilic molecule complexes were freshly prepared prior to the transfection experiments. 35 μL of the corresponding amphiphile were added to 10 μL of a solution of EGFP-mRNA at 10 ng/μL in DMEM. The mixture was shaken for 30 min at room temperature before the addition to the cells. The cell medium was aspirated, and cells were washed with PBS twice. Cells were covered with 39 μL of DMEM and 11 μL of the complex's solution were added to the cells and incubated for 4 h (final concentration of peptide=2.5, 5 and 10 μM; final concentration of EGFP-mRNA=25 ng/well). After the incubation, the medium was replaced by 100 μL of fresh DMEM supplemented with 10% FBS. The total EGFP fluorescence was quantified after 72 h in a well plate reader. Amphiphile transfection efficiency was compared and normalized to Lipofectamine® MessengerMax efficiency (value of 1 in Tables 1-5 and 7; double underlined numbers). All experiments were done in triplicate.
(§1) Tables 1-7: RLuc (pDNA) or EGFP (mRNA) expression levels were normalized to Lipofectamine reagents (value=1) and expressed as fold-times signal increase. In the case of siRNA, the siRNA treated cells fluorescence was compared with siMOCK control fluorescence, while Cas9-RNP mediated knockout was measured against the fluorescence of untreated cells. In both siRNA and Cas9-RNP, values are expressed as % fluorescence reduction. Amphiphile concentration was 5 μM in all cases. All experiments were performed in triplicate.
Tables 14-19 show the mean (triplicates) fluorescence intensity measured after the transfection of EGFP mRNA by different amphiphiles at different concentrations in a variety of cell lines. Background fluorescence values, accounted by untreated control cells, were subtracted for processing.

[2] = system: A549 cells expressing EGFP; assay: EGFP-targeting siRNA delivery (GFP silencing vs siMOCK), A549; assay type: cell-based; settings: for percentage of GFP-silencing relative to siMOCK: A549 cells
Method: To generate an EGFP expressing HeLa cell line, HeLa cells were transfected with EGFP pDNA (pEGFP-C1, Clontech) and stable transfectants were selected with 400 μg/mL of G-418 (Millipore). Green clones were selected by epifluorescence microscopy and tested for EGFP expression stability through several passages. […] All other EGFP-expressing cell lines were obtained in a similar way from parent non-EGFP-expressing cell lines.
Cells expressing EGFP were seeded in a 96 well plate the day before the experiment at a concentration of 50,000 cell/mL (100 μL/w) in DMEM+10% FBS+1% Gln-Abt. For robotic library screening, the delivery of an EGFP-targeting siRNA (EGFP: enhanced green fluorescent protein, Ambion® Silencer® GFP Positive Control siRNA (siGFP) (AM4626)) in six different cell lines expressing EGFP was performed. […] The mixture was shaken for 30 min at room temperature (rt) before the addition to the cells. The cell medium was aspirated, and cells were washed twice with PBS. Finally, 50 μL of the solution of siRNA/amphiphile complexes were added to the cells and incubated for 4 h. After transfection, the medium was replaced by 100 μL of fresh DMEM supplemented with 10% FBS. The fluorescence knockdown was quantified after 72 h in a plate reader, by comparison with cells transfected with a non-targeting siRNA control (siMOCK, Silencer™ Negative Control No. 1 siRNA (siMOCK) (AM4611)). EGFP knockdown was compared with Lipofectamine® RNAiMAX silencing efficiency (30-60% depending on cell line, defined with a numeric value in the below tables). All experiments were done in triplicate.
as §1
Tables 20-25 show the mean (triplicates) percentage of GFP-silencing, accounted by fluorescence intensity decrease relative to a non-targeting siRNA (siMOCK) control, measured after the transfection of siRNA by different amphiphiles at different concentrations in a variety of cell lines. Background values, accounted by untreated control cells, were subtracted for processing.

| Compound | mean fluorescence intensity (EGFP mRNA) ([1]; HeLa, Myristoleyl, 2.5 μM) | mean fluorescence intensity (EGFP mRNA) ([1]; HeLa, Oleyl, 5 μM) | mean fluorescence intensity (EGFP mRNA) ([1]; HeLa, Palmitoleyl, 2.5 μM) | mean fluorescence intensity (EGFP mRNA) ([1]; HeLa, Petroselinyl, 2.5 μM) | mean fluorescence intensity (EGFP mRNA) ([1]; HeLa, Petroselinyl, 10 μM) | mean fluorescence intensity (EGFP mRNA) ([1]; Hela, Myristoleyl, 5 μM) | mean fluorescence intensity (EGFP mRNA) ([1]; Hela, Palmitoleyl, 10 μM) | mean fluorescence intensity (EGFP mRNA) ([1]; Hela, Petroselinyl, 5 μM) | percentage of GFP-silencing relative to siMOCK ([2]; Myristoleyl, 5 μM) | percentage of GFP-silencing relative to siMOCK ([2]; Myristoleyl, 10 μM) | percentage of GFP-silencing relative to siMOCK ([2]; Myristoleyl, 15 μM) | percentage of GFP-silencing relative to siMOCK ([2]; Oleyl, 5 μM) | percentage of GFP-silencing relative to siMOCK ([2]; Oleyl, 10 μM) | percentage of GFP-silencing relative to siMOCK ([2]; Oleyl, 15 μM) | percentage of GFP-silencing relative to siMOCK ([2]; Palmitoleyl, 15 μM) | percentage of GFP-silencing relative to siMOCK ([2]; Petroselinyl, 10 μM) | percentage of GFP-silencing relative to siMOCK ([2]; Petroselinyl, 15 μM) | percentage of GFP-silencing relative to siMOCK ([2]; Dodecanal, 10 μM) | percentage of GFP-silencing relative to siMOCK ([2]; Dodecanal, 15 μM) | mean fluorescence intensity (EGFP mRNA) ([1]; HeLa, Dodecanal, 2.5 μM) | further results |
| --- | --- | --- | --- | --- | --- | --- | --- | --- | --- | --- | --- | --- | --- | --- | --- | --- | --- | --- | --- | --- | --- |
| CC(=O)N[C@@H](CCCNC(=N)N)C(=O)N[C@@H](CCCCNC(=O)CCCC(=O)NN)C(=O)N[C@@H](Cc1c[nH]cn1)C(=O)N[C@@H](CCCNC(=N)N)C(=O)N[C@@H](CCCCNC(=O)CCCC(=O)NN)C(=O)N[C@@H](CCCCNC(=O)CCCC(=O)NN)C(=O)N[C@@H](Cc1c[nH]cn1)C(N)=O [7.3(L-H), Ac-RK*HRK*K*H-NH2] (Ac-RK([Glutaryl-NHNH2])HRK([Glutaryl-NHNH2])K([Glutaryl-NHNH2])H-NH2) | 30978 | 16633 | 46778 | 15046 | 2234 | 3346 | 1577 | 28395 | 18% | 22% | 31% | 2% | 14% | 21% | 40% | 20% | 52% |  |  |  | mean fluorescence intensity (EGFP mRNA) ([1]; HeLa, Oleyl, 2.5 μM): 13495; mRNA delivery relative to Lipofectamine MessengerMAX ([1]; HeLa, myristoleyl, palmitoleyl or petroselinyl aldehydes): between two and three times better; mean fluorescence intensity (EGFP mRNA) ([1]; Hela, Palmitoleyl, 5 μM): 21109 |
| Ac-RHLK*RHK*RRLK*RH-NH2 (Ac-RHLKRHKRRLKRH-NH2; not fully specified (residues 4, 7, 11); printed as Ac-RHLK*RHK*RRLK*RH-NH2; also: linker on K* not given here) [13(3His)] | 621 |  |  | 640 | 178 |  |  | 208 |  | 28% | 25% | 22% | 26% | 29% | 28% | 42% | 71% | 10% | 37% |  | siRNA % fluorescence reduction vs siMOCK ([2]; A549, amphiphile 5 μM, hydrophobic tail): 71%; percentage of GFP-silencing relative to siMOCK ([2]; Palmitoleyl, 10 μM): 36% |
| Ac-RHLK*RLK*RRLK*RL-NH2 (Ac-RHLKRLKRRLKRL-NH2; not fully specified (residues 4, 7, 11); printed as Ac-RHLK*RLK*RRLK*RL-NH2; also: linker on K* not given here) [13(Arg-His)] |  |  | 578 | 360 | −15 |  |  | 135 |  | 17% | 5% | 23% | 22% | 15% | 14% | 20% | 11% | 28% | 18% |  |  |
| Ac-RK*LRK*K*L-NH2 (Ac-RK(NHNH2)LRK(NHNH2)K(NHNH2)L-NH2; not fully specified; printed as Ac-RK*LRK*K*L-NH2; also: K*2,K*5,K*6: native or modified lysine (ε-amide to a linker)) [Peptide 7.3] | 13591 | 501 |  | 9039 | 732 |  | 189 |  |  |  |  | 3% |  | 7% |  | 13% |  | 22% | 19% | 6327 | mean fluorescence intensity (EGFP mRNA) ([1]; HeLa, Dodecanal, 5 μM): 4738; mean fluorescence intensity (EGFP mRNA) ([1]; Hela, Dodecanal, 10 μM): 572; mean fluorescence intensity (EGFP mRNA) ([1]; Hela, Myristoleyl, 10 μM): 647; percentage of GFP-silencing relative to siMOCK ([2]; Dodecanal, 5 μM): 7% |
| Ac-RK*LRRK*L-NH2 (Ac-RK(NHNH2)LRRK(NHNH2)L-NH2; not fully specified; printed as Ac-RK*LRRK*L-NH2; also: K*2,K*6: native or modified lysine (ε-amide to a linker)) [Peptide 7.2] | 5194 |  |  |  |  | 654 |  |  | 8% | 14% | 16% |  |  |  |  |  |  | 11% | 8% | 268 | mean fluorescence intensity (EGFP mRNA) ([1]; HeLa, Dodecanal, 5 μM): 341; mean fluorescence intensity (EGFP mRNA) ([1]; Hela, Dodecanal, 10 μM): 288; mean fluorescence intensity (EGFP mRNA) ([1]; Hela, Myristoleyl, 10 μM): 358; percentage of GFP-silencing relative to siMOCK ([2]; Dodecanal, 5 μM): 5% |
